The record followed here is ChEMBL document CHEMBL2163191, “Antiallergic activity profile in vitro RBL-2H3 and in vivo passive cutaneous anaphylaxis mouse model of new sila-substituted 1,3,4-oxadiazoles” (J Med Chem, 2012).

For data set [1], the system named is Mus musculus. The data set is described as follows: Antiallergic activity in IgE/Ag-induced passive cutaneous anaphylactic ICR mouse model injected with DNP-HSA-Evans blue dye post DNP-IgE challenge at 50 mg/kg, po 1 hr before antigenic challenge measured after 2 hrs post IgE/Ag challenge. Also on record: dose 50 mg/kg. Type of data set: functional, organism-based.

Data set [2] relates to RBL-2H3. Briefly: Antidegranulation effect in DNP-HSA induced rat RBL2H3 cells assessed as IgE/Ag complex-induced degranulation preincubated for 30 mins before DNP-HSA challenge for 15 mins by beta-hexosaminidase release based microplate reader method. Type of data set: functional, cell-based.
Data set [3] relates to RBL-2H3. The data set is described as follows: Inhibition of PI3K-mediated Akt phosphorylation in IgE/Ag-induced rat RBL2H3 cells incubated in presence of DNP-HSA for 1 hr post compound dosing by Western blotting. Type of data set: cell-based. On the technique in general: A western blot detects proteins with antibodies after separation by electrophoresis.
The subject of data set [4] is RBL-2H3. The data set is described as follows: Cytotoxicity against IgE/Ag-stimulated rat RBL2H3 cells at 50 to 200 uM incubated for 23 hrs by Ez-cytox assay. Type of data set: cell-based. The settings on record: rbl-2h3, 23 h.
The test system of data set [5] is Mus musculus. Briefly: Antiallergic activity in IgE/Ag-induced passive cutaneous anaphylactic ICR mouse model injected with DNP-HSA-Evans blue dye post DNP-IgE challenge at 50 to 100 mg/kg, po 1 hr before antigenic challenge measured after 2 hrs post IgE/Ag challenge. Type of data set: functional, organism-based.
The test system of data set [6] is RBL-2H3. The data set is described as follows: Inhibition of TNFalpha mRNA expression in IgE/Ag-stimulated rat RBL2H3 cells incubated in presence of DNP-HSA for 1 hr post compound dosing by RT-PCR. Type of data set: functional, cell-based.

Activity calls are given as the source filed them. The rule behind the calls is not given here.

Consider `CN(C)CCOC(c1ccccc1)c1ccccc1`, for which the result in the data set with Mus musculus [1] was Active.

As for `CC(C)(C)CS(=O)(=O)Cc1nnc(-c2ccc(Cl)cc2)o1`, the outcome with RBL-2H3 [2] was inactive.

Regarding `C[Si](C)(C)CS(=O)(=O)Cc1nnc(-c2ccc(Cl)cc2)o1`, the Activity result in the data set with RBL-2H3 [2] is “Dose-dependent effect”; in the data set on RBL-2H3 [4] it was “Non-toxic”. The inhibition entry with RBL-2H3 [3] and in the data set with RBL-2H3 [6] was “Dose-dependent effect” each time. Moreover, the outcome in the data set with Mus musculus [5] was Active.
